SMILES strings stand for the structures. A value given as a limit tells only on which side of the number the result lay.

In test [1] the test system is NEO2A (RNA, aptamer) CACUGCAGUCCGAAAAGGGCCAGUG
The test is described as follows: ITC. The conditions noted are these: 13.5 mM NaCl, 150 mM KCl, 0.12 mM MgCl2, 0.1 mM MgSO4, 120 nM CaCl2, Buffer A: 20 mM HEPES, pH 7.3, 25 °C.

In test [2] the test system is NEO2AΔA (RNA, aptamer) CACUGCAGUCCGAAAGGGCCAGUG
The test is described as follows: ITC. Particulars: 13.5 mM NaCl, 150 mM KCl, 0.12 mM MgCl2, 0.1 mM MgSO4, 120 nM CaCl2; Buffer A: 20 mM HEPES, phosphate, pH 7.3, 25 °C.

Test [3] relates to 2AP16NEO2A (RNA, aptamer, 2-aminopurine at 16) CACUGCAGUCCGAAAAGGGCCAGUG
The test is described as follows: ITC. Particulars: 13.5 mM NaCl, 150 mM KCl, 0.12 mM MgCl2, 0.1 mM MgSO4, 120 nM CaCl2; Buffer A, pH 7.3, 25 °C; affinity 40% of unsubstituted NEO2A.

Test [4] concerns 2AP13NEO2A (RNA, aptamer, 2-aminopurine at 13) CACUGCAGUCCGAAAAGGGCCAGUG
The test is described as follows: 2-aminopurine fluorescence. Particulars: buffer A or F; 10 μM ligand, 1 μM RNA; fluorescence increase.

Test [5] deals with 2AP14NEO2A (RNA, aptamer, 2-aminopurine at 14) CACUGCAGUCCGAAAAGGGCCAGUG
Put plainly: 2-aminopurine fluorescence. Particulars: buffer A or F; 10 μM ligand, 1 μM RNA; fluorescence decrease.

Test [6] concerns 2AP7NEO2A (RNA, aptamer, 2-aminopurine at 7) CACUGCAGUCCGAAAAGGGCCAGUG
The test is described as follows: 2-aminopurine fluorescence. Particulars: buffer A or F; 10 μM ligand, 1 μM RNA; fluorescence increase.

What is called Kd is the free concentration of one partner at which half of the binding sites on the other are occupied at equilibrium, for simple one-to-one binding. Read a low Kd as tighter binding. In turn, `CCN[C@@H]1C[C@H](N)[C@@H](O[C@H]2OC(CN)=CC[C@H]2N)[C@H](O)[C@H]1O[C@H]1OC[C@](C)(O)[C@H](NC)[C@H]1O` yielded a Kd in test [1] (phosphate) greater than 100 µM. As for `CN[C@@H]1[C@@H](O)[C@@H](O[C@@H]2[C@@H](O)[C@H](O[C@H]3OC(CN)=CC[C@H]3N)[C@@H](N)C[C@H]2N)OC[C@]1(C)O`, the results for the Kd in test [1] (phosphate) and in test [2] were 4.9 ± 1.2 µM and 4.9 ± 1.0 µM, respectively. Take `CN[C@@H]1[C@@H](O)[C@@H](O[C@@H]2[C@@H](O)[C@H](O[C@H]3O[C@H]([C@@H](C)O)[C@@H](O)[C@H](O)[C@H]3N)[C@@H](N)C[C@H]2N)OC[C@]1(C)O`: the Kd in test [1] (phosphate) is greater than 100 µM.

For `NCC[C@H](O)C(=O)N[C@@H]1C[C@H](N)[C@@H](O[C@H]2O[C@H](CN)[C@@H](O)[C@H](O)[C@H]2O)[C@H](O)[C@H]1O[C@H]1O[C@H](CO)[C@@H](O)[C@H](N)[C@H]1O`, in test [1] (phosphate), the Kd was greater than 100 µM. Consider `NC[C@@H]1O[C@H](O[C@H]2[C@@H](O)[C@H](O[C@@H]3[C@@H](O)[C@H](N)C[C@H](N)[C@H]3O[C@H]3O[C@H](CN)[C@@H](O)[C@H](O)[C@H]3N)O[C@@H]2CO)[C@H](N)[C@@H](O)[C@@H]1O`, for which the binding result in test [3], in test [4], in test [5] and in test [6] was “yes” throughout. Further, the Kd in test [1] (phosphate) came out at 0.25 ± 0.050 µM; in test [2], 0.17 ± 0.031 µM. `NC[C@@H]1O[C@H](O[C@H]2[C@@H](O)[C@H](O[C@@H]3[C@@H](O)[C@H](N)C[C@H](N)[C@H]3O[C@H]3O[C@H](CO)[C@@H](O)[C@H](O)[C@H]3N)O[C@@H]2CO)[C@H](N)[C@@H](O)[C@@H]1O` showed a Kd in test [1] (phosphate) of 1.6 ± 0.26 µM. Moreover, the binding entry in test [2] is on record as “no”. For `NC[C@H]1O[C@H](O[C@H]2[C@H](O)[C@@H](O[C@H]3O[C@H](CO)[C@@H](O)[C@H](N)[C@H]3O)[C@H](N)C[C@@H]2N)[C@H](N)C[C@@H]1O`, the Kd was 0.40 ± 0.051 µM in test [1] (phosphate) and 6.3 ± 0.84 µM in test [2]. The compound `NC[C@H]1O[C@H](O[C@H]2[C@H](O)[C@@H](O[C@H]3O[C@H](CO)[C@@H](O)[C@H](N)[C@H]3O)[C@H](N)C[C@@H]2N)[C@H](N)[C@@H](O)[C@@H]1O` gave a Kd in test [1] (phosphate) of 0.25 ± 0.073 µM.

In test [1] (phosphate), `NC[C@H]1O[C@H](O[C@H]2[C@H](O)[C@@H](O[C@H]3O[C@H](CO)[C@@H](O)[C@H](N)[C@H]3O)[C@H](N)C[C@@H]2N)[C@H](O)[C@@H](O)[C@@H]1O` yielded a Kd of 26 ± 3.0 µM.

For `NC[C@H]1O[C@H](O[C@H]2[C@H](O[C@@H]3O[C@H](CO)[C@@H](O)[C@H]3O)[C@@H](O)[C@H](N)C[C@@H]2N)[C@H](N)[C@@H](O)[C@@H]1O`, the Kd in test [1] (Table S4 prints 0.4 ± 0.075) is 0.28 ± 0.066 µM; in test [2], 2.3 ± 0.0015 µM.

Source of the values: PMC6943582 (2019).
